In patent US12577231B2, “Androgen receptor PROTACS” (GlaxoSmithKline Intellectual Property Development Limited, priority 2023, dated 2026):
Changes are numbered by the printed parent chain.

Columns and labels:
[1] = biological target: T1, Androgen Receptor, MDA-PCa-2b (AR T878A/L702H) (Homo sapiens, UniProt P10275, L702H/T878A); assay: Androgen Receptor Degradation-Imaging Assay, MDA-PCa-2b cell line; type: cell-based; settings: 16 hours treatment, maximum observed degradation
T1 construct: host or cells: MDA-PCa-2b
T1 sequence (P10275 1-920 L702H/T878A): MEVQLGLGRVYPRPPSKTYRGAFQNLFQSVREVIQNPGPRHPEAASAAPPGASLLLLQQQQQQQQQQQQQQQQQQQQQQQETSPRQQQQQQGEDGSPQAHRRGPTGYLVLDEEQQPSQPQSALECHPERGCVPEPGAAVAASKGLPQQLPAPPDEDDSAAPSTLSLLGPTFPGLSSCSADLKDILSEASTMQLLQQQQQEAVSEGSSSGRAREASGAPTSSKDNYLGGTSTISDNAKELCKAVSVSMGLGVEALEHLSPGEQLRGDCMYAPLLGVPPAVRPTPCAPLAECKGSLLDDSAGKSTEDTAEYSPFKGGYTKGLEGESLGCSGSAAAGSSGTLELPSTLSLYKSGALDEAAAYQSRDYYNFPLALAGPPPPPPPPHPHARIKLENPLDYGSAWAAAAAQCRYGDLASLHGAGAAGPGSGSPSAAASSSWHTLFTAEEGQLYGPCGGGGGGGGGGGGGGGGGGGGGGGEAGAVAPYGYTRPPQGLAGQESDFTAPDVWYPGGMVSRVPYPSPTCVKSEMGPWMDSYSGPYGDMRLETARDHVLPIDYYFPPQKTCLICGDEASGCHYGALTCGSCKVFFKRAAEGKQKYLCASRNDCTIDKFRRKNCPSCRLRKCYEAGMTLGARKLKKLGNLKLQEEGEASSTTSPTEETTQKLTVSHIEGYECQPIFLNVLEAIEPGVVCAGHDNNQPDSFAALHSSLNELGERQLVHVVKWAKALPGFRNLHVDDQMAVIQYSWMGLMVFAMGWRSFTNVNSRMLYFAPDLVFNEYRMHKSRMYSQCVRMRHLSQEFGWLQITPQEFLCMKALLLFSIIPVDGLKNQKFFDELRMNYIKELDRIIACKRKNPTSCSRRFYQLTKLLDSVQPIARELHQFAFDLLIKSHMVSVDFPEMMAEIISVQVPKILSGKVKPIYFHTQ
Procedure: (§1) Degradation of Androgen Receptor (AR) protein in human prostate cancer cell lines (MDA-PCa-2b (AR T878A/L702H), LNCaP (AR T878A), VCaP (AR wild type and amplified) 22RV1 (AR H875Y) and PC3 (AR negative control)) treated with AR PROTACs was quantified using immunofluorescence. Prostate cancer cells were plated (MDA-PCa-2b, and VCaP 16,000 cells/well; LNCaP and 22RV1 32,000 cells/well, and PC3 8,000 cells/well) in an optical bottom 96-well cell culture plate and allowed to attach overnight. The prostate cancer cell lines were treated for 16 hours with a 10-point 3-fold dilution series (dose range=0.02 nM to 333 nM). PC3 is included as an AR negative control and not treated with compound. Cells are fixed and permeabilized with 4% formaldehyde, blocked with 10% goat serum in immunofluorescence (IF) buffer (130 mM NaCl, 7 mM Na2HPO4, 3.5 mM NaH2PO4, 7.7 mM NaN3, 0.1% BSA, 0.2% Triton X, 0.05% Tween 20) prior to overnight incubation with rabbit antibody specific for C terminus of AR (commercially available from RevMaB Biosciences). Following washes with IF buffer, cells were incubated with fluorescent secondary antibody (Goat anti-rabbit Alexa 647; commercially available from Invitrogen) and Hoechst nuclear stain (commercially available from Themo Scientific) prior to quantification of nuclear AR levels via Opera Phenix high-content fluorescent imager using a 40× water objective. Image analysis was performed with Harmony software.
(§2) The averaged nuclear Alexa 647 median fluorescence intensity (MFI) of PC3 cells is subtracted from the nuclear Alexa 647 MFI of PROTAC treated and DMSO control treated cells. % AR remaining is calculated for PROTAC treatments as a percent of the DMSO control (MFI PROTAC treated/MFI DMSO control treated)*100). DC50 and the Dmax values, were obtained from these normalised values fitted with a 4-parameter sigmoidal response curve (Xlfit software). The DC50 is the interpolated concentration of PROTAC corresponding to 50% of the protein being degraded, and the Dmax parameter is the maximum experimentally observed degradation.

[2] = biological target: T2, Androgen Receptor, VCaP (AR wild type and amplified) (Homo sapiens, UniProt P10275); assay: Androgen Receptor Degradation-Imaging Assay, VCaP cell line; type: cell-based; settings: 16 hours treatment, maximum observed degradation
T2 construct: endogenous in cells; host or cells: VCaP
T2 sequence (P10275 1-920): T1 sequence (P10275 1-920 L702H/T878A) with H702L, A878T
Procedure: as §1, §2

| SMILES | Dmax [1] [%] | Dmax [2] [%] |
| --- | --- | --- |
| COc1c(C#N)ccc(O[C@H]2C(C)(C)[C@H](NC(=O)c3ccc(N4CCC(CN5CCC(n6ncc7c(N8CCC(=O)NC8=O)cccc76)CC5)CC4)c(F)c3)C2(C)C)c1C [Example 5, N-((1r,3r)-3-(4-Cyano-3-methoxy-2-methylphenoxy)-2,2,4,4-tetramethylcyclobutyl)-4-(4-((4-(4-(2,4-dioxotetrahydropyrimidin-1(2H)-yl)-1H-indazol-1-yl)piperidin-1-yl)methyl)piperidin-1-yl)-3-fluorobenzamide] | ≥ 80 | ≥ 80 |
| CC1(C)[C@H](NC(=O)c2ccc(N3CCC(CN4CCC(n5ncc6c(N7CCC(=O)NC7=O)cccc65)CC4)CC3)c(F)c2)C(C)(C)[C@H]1Oc1ccc(C#N)c2ncccc12 [Example 6, N-((1r,3r)-3-((8-Cyanoquinolin-5-yl)oxy)-2,2,4,4-tetramethylcyclobutyl)-4-(4-((4-(4-(2,4-dioxotetrahydropyrimidin-1(2H)-yl)-1H-indazol-1-yl)piperidin-1-yl)methyl)piperidin-1-yl)-3-fluorobenzamide] | ≥ 80 | ≥ 80 |
| COc1cc(O[C@H]2C(C)(C)[C@H](NC(=O)c3ccc(N4CCC(CN5CCC(n6ccc7c(N8CCC(=O)NC8=O)cccc76)CC5)CC4)cc3)C2(C)C)ccc1C#N [Example 16, N-((1r,3r)-3-(4-Cyano-3-methoxyphenoxy)-2,2,4,4-tetramethylcyclobutyl)-4-(4-((4-(4-(2,4-dioxotetrahydropyrimidin-1(2H)-yl)-1H-indol-1-yl)piperidin-1-yl)methyl)piperidin-1-yl)benzamide] | ≥ 80 | ≥ 80 |
| COc1cc(O[C@H]2C(C)(C)[C@H](NC(=O)c3ccc(N4CCC(CN5CCC(n6ncc7c(N8CCC(=O)NC8=O)cccc76)CC5)CC4)cc3)C2(C)C)ccc1C#N [Example 15, N-((1r,3r)-3-(4-Cyano-3-methoxyphenoxy)-2,2,4,4-tetramethylcyclobutyl)-4-(4-((4-(4-(2,4-dioxotetrahydropyrimidin-1(2H)-yl)-1H-indazol-1-yl)piperidin-1-yl)methyl)piperidin-1-yl)benzamide] | ≥ 80 | ≥ 80 |
| CC1(C)[C@H](NC(=O)c2ccc(N3CCC(CN4CCC(n5ncc6c(N7CCC(=O)NC7=O)nccc65)CC4)CC3)c(F)c2)C(C)(C)[C@H]1Oc1ccc(C#N)c2ncccc12 [Example 39, N-((1r,3r)-3-((8-Cyanoquinolin-5-yl)oxy)-2,2,4,4-tetramethylcyclobutyl)-4-(4-((4-(4-(2,4-dioxotetrahydropyrimidin-1(2H)-yl)-1H-pyrazolo[4,3-c]pyridin-1-yl)piperidin-1-yl)methyl)piperidin-1-yl)-3-fluorobenzamide] | ≥ 80 | ≥ 80 |
| CC1(C)[C@H](NC(=O)c2ccc(N3CCC(CN4CCC(n5ccc6c(N7CCC(=O)NC7=O)ncnc65)CC4)CC3)c(F)c2)C(C)(C)[C@H]1Oc1ccc(C#N)c2ncccc12 [Example 47, N-((1r,3r)-3-((8-Cyanoquinolin-5-yl)oxy)-2,2,4,4-tetramethylcyclobutyl)-4-(4-((4-(4-(2,4-dioxotetrahydropyrimidin-1(2H)-yl)-7H-pyrrolo[2,3-d]pyrimidin-7-yl)piperidin-1-yl)methyl)piperidin-1-yl)-3-fluorobenzamide] | ≥ 80 | ≥ 80 |
| CC1(C)[C@H](NC(=O)c2ccc(N3CCC(CN4CCC(n5ncc6c(N7CCC(=O)NC7=O)cccc65)CC4)CC3)c(F)c2)C(C)(C)[C@H]1Oc1ccc(C#N)c2c1CCCO2 [Example 8, N-((1r,3r)-3-((8-Cyanochroman-5-yl)oxy)-2,2,4,4-tetramethylcyclobutyl)-4-(4-((4-(4-(2,4-dioxotetrahydropyrimidin-1(2H)-yl)-1H-indazol-1-yl)piperidin-1-yl)methyl)piperidin-1-yl)-3-fluorobenzamide] | ≥ 80 | ≥ 80 |
| CC1(C)[C@H](NC(=O)c2ccc(N3CCC(CN4CCC(n5ccc6c(N7CCC(=O)NC7=O)ncnc65)CC4)CC3)cc2)C(C)(C)[C@H]1Oc1ccc(C#N)c2ncccc12 [Example 28, N-((1r,3r)-3-((8-Cyanoquinolin-5-yl)oxy)-2,2,4,4-tetramethylcyclobutyl)-4-(4-((4-(4-(2,4-dioxotetrahydropyrimidin-1(2H)-yl)-7H-pyrrolo[2,3-d]pyrimidin-7-yl)piperidin-1-yl)methyl)piperidin-1-yl)benzamide] | ≥ 80 | ≥ 80 |
| CC1(C)[C@H](NC(=O)c2ccc(N3CCC(O)(CN4CCC(n5ncc6c(N7CCC(=O)NC7=O)cccc65)CC4)CC3)c(F)c2)C(C)(C)[C@H]1Oc1ccc(C#N)c2ncccc12 [Example 48, N-((1r,3r)-3-((8-Cyanoquinolin-5-yl)oxy)-2,2,4,4-tetramethylcyclobutyl)-4-(4-((4-(4-(2,4-dioxotetrahydropyrimidin-1(2H)-yl)-1H-indazol-1-yl)piperidin-1-yl)methyl)-4-hydroxypiperidin-1-yl)-3-fluorobenzamide] | ≥ 80 | ≥ 80 |
| CC1(C)[C@H](NC(=O)c2ccc(N3CCC(CN4CCC(n5ccc6c(N7CCC(=O)NC7=O)cccc65)CC4)CC3)c(F)c2)C(C)(C)[C@H]1Oc1ccc(C#N)c2ncccc12 [Example 31, N-((1r,3r)-3-((8-Cyanoquinolin-5-yl)oxy)-2,2,4,4-tetramethylcyclobutyl)-4-(4-((4-(4-(2,4-dioxotetrahydropyrimidin-1(2H)-yl)-1H-indol-1-yl)piperidin-1-yl)methyl)piperidin-1-yl)-3-fluorobenzamide] | ≥ 80 | ≥ 80 |
